From patent US8236792B2, “Substituted pyrrolidine amides as modulators of the histamine H3 receptor” (Janssen Pharmaceutica NV, priority 2008, dated 2012)

Assays:
[1] = target: T1, cloned human H3 receptors (Homo sapiens, UniProt Q9Y5N1); assay: H3 Receptor Binding (Human) Method 1; conditions: receptor stably expressed in SK-N-MC cells, free base forms, average of results
T1 construct: expressed in transfected cells

human H3 receptor = human H3 receptor (Homo sapiens, UniProt Q9Y5N1); assay: H3 Receptor Binding (Human) Method 2, [125I]-iodoproxyfan competitive radioligand binding; parameters: expressed in transfected cells; conditions: read-out: Human H3 Ki
cloned rat H3 receptors = target: T2, cloned rat H3 receptors (Rattus norvegicus, UniProt Q9QYN8); assay: H3 Receptor Binding (Rat); conditions: receptor stably expressed in SK-N-MC cells; free base or hydrochloride salt; average of results; read-out: Rat H3 Ki
T2 construct: expressed in transfected cells
T2 sequence (Q9QYN8 whole entry): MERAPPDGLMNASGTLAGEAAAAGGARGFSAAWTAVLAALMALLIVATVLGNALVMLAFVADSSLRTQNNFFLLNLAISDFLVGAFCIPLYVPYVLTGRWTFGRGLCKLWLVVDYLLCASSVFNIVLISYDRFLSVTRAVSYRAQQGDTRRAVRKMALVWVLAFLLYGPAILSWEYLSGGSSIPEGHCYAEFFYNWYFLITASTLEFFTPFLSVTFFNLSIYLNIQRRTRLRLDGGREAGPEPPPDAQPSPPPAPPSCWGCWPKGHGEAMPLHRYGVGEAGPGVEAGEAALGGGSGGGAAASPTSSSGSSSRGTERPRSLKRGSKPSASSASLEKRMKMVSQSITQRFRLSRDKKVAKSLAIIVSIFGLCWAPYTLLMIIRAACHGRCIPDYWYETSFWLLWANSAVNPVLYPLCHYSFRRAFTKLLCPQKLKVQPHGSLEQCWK
Method: Compounds were tested for binding to cloned rat H3 receptors, stably expressed in SK-N-MC cells.
Compounds were tested in their free base or hydrochloride salt forms.

T1 sequence (Q9Y5N1 whole entry): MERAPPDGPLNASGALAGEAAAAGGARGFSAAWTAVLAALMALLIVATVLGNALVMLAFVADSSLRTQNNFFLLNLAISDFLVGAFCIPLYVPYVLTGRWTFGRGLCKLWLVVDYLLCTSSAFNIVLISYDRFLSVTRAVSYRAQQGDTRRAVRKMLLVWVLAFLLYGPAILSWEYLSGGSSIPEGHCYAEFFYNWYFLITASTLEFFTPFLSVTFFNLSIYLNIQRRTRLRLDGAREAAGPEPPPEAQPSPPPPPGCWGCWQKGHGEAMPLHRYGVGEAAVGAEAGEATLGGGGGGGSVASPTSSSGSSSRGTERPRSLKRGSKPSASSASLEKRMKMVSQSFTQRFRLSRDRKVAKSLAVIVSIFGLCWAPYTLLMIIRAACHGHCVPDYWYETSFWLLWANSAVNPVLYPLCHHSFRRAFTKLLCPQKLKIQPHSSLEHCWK
Chain of human H3 receptor (Q9Y5N1 whole entry): as above

CC(C)(C)OC(=O)N1C[C@@H](Oc2ccc(C#N)cc2)C[C@@H]1C(=O)N1CCCN(C2CCC2)CC1 [Example 16, (2R,4S)-4-(4-Cyano-phenoxy)-2-(4-cyclobutyl-[1,4]diazepane-1-carbonyl)-pyrrolidine-1-carboxylic acid tert-butyl ester]
Ki [1]: 3 nM
Ki (human H3 receptor): 2 nM

CC(C)(C)OC(=O)N1C[C@@H](Oc2cccc(F)c2)C[C@@H]1C(=O)N1CCCN(C2CCC2)CC1 [Example 17, (2R,4S)-2-(4-Cyclobutyl-[1,4]diazepane-1-carbonyl)-4-(3-fluoro-phenoxy)-pyrrolidine-1-carboxylic acid tert-butyl ester]
Ki [1]: 3 nM
Ki (human H3 receptor): 3 nM

CC(C)(C)OC(=O)N1C[C@@H](Oc2ccccc2)C[C@@H]1C(=O)N1CCCN(C2CCC2)CC1 [Example 19, (2R,4S)-2-(4-Cyclobutyl-[1,4]diazepane-1-carbonyl)-4-phenoxy-pyrrolidine-1-carboxylic acid tert-butyl ester]
Ki [1]: 5 nM
Ki (human H3 receptor): 9 nM

CC(C)(C)OC(=O)N1C[C@@H](Oc2cccc(Cl)c2)C[C@@H]1C(=O)N1CCCN(C2CCC2)CC1 [Example 20, (2R,4S)-4-(3-Chloro-phenoxy)-2-(4-cyclobutyl-[1,4]diazepane-1-carbonyl)-pyrrolidine-1-carboxylic acid tert-butyl ester]
Ki [1]: 12 nM
Ki (human H3 receptor): 4 nM

CC(C)(C)OC(=O)N1C[C@@H](Oc2ccc(Cl)cc2)C[C@@H]1C(=O)N1CCCN(C2CCC2)CC1 [Example 21, (2R,4S)-4-(4-Chloro-phenoxy)-2-(4-cyclobutyl-[1,4]diazepane-1-carbonyl)-pyrrolidine-1-carboxylic acid tert-butyl ester]
Ki [1]: 12 nM
Ki (human H3 receptor): 3 nM

CC(C)(C)OC(=O)N1C[C@@H](Oc2cccc(C#N)c2)C[C@@H]1C(=O)N1CCCN(C2CCC2)CC1 [Example 22, (2R,4S)-4-(3-Cyano-phenoxy)-2-(4-cyclobutyl-[1,4]diazepane-1-carbonyl)-pyrrolidine-1-carboxylic acid tert-butyl ester]
Ki [1]: 3 nM

Cc1cccc(O[C@H]2C[C@H](C(=O)N3CCCN(C4CCC4)CC3)N(C(=O)OC(C)(C)C)C2)c1 [Example 27, (2R,4S)-2-(4-Cyclobutyl-[1,4]diazepane-1-carbonyl)-4-m-tolyloxy-pyrrolidine-1-carboxylic acid tert-butyl ester]
Ki (human H3 receptor): 5 nM
Ki (cloned rat H3 receptors): 232 nM

CC(C)(C)OC(=O)N1CC(Oc2cccc(Cl)c2)C[C@H]1C(=O)N1CCCN(C2CCC2)CC1 (stereo partly drawn) [Example 42, (2S)-4-(3-Chloro-phenoxy)-2-(4-cyclobutyl-[1,4]diazepane-1-carbonyl)-pyrrolidine-1-carboxylic acid tert-butyl ester]
Ki [1]: 24 nM

CC(C)(C)OC(=O)N1CC(Oc2ccc(Cl)cc2)C[C@H]1C(=O)N1CCCN(C2CCC2)CC1 (stereo partly drawn) [Example 43, (2S)-4-(4-Chloro-phenoxy)-2-(4-cyclobutyl-[1,4]diazepane-1-carbonyl)-pyrrolidine-1-carboxylic acid tert-butyl ester]
Ki [1]: 33 nM

CC(C)(C)OC(=O)N1CC(Oc2ccc(Cl)c(Cl)c2)C[C@H]1C(=O)N1CCCN(C2CCC2)CC1 (stereo partly drawn) [Example 44, (2S)-2-(4-Cyclobutyl-[1,4]diazepane-1-carbonyl)-4-(3,4-dichloro-phenoxy)-pyrrolidine-1-carboxylic acid tert-butyl ester]
Ki [1]: 52 nM

CC(C)(C)OC(=O)N1CC(Oc2ccc(C#N)cc2)C[C@H]1C(=O)N1CCCN(C2CCC2)CC1 (stereo partly drawn) [Example 45, (2S)-4-(4-Cyano-phenoxy)-2-(4-cyclobutyl-[1,4]diazepane-1-carbonyl)-pyrrolidine-1-carboxylic acid tert-butyl ester]
Ki [1]: 8 nM

CSc1ccc(OC2C[C@@H](C(=O)N3CCCN(C4CCC4)CC3)N(C(=O)OC(C)(C)C)C2)cc1 (stereo partly drawn) [Example 46, (2S)-2-(4-Cyclobutyl-[1,4]diazepane-1-carbonyl)-4-(4-methylsulfanyl-phenoxy)-pyrrolidine-1-carboxylic acid tert-butyl ester]
Ki [1]: 35 nM

CC(C)(C)OC(=O)N1CC(Oc2ccccc2)C[C@H]1C(=O)N1CCCN(C2CCC2)CC1 (stereo partly drawn) [Example 47, (2S)-2-(4-Cyclobutyl-[1,4]diazepane-1-carbonyl)-4-phenoxy-pyrrolidine-1-carboxylic acid tert-butyl ester]
Ki [1]: 50 nM

CC(C)O[C@@H]1C[C@@H](C(=O)N2CCCN(C3CCC3)CC2)N(C(=O)OC(C)(C)C)C1 [Example 59, (2S,4R)-2-(4-Cyclobutyl-[1,4]diazepane-1-carbonyl)-4-isopropoxy-pyrrolidine-1-carboxylic acid tert-butyl ester]
Ki [1]: 16 nM

O=C([C@@H]1C[C@H](Oc2ccc(F)cc2)CN1)N1CCN(C2CCC2)CC1 [Example 63, (2S,4S)-2-(4-Cyclobutyl-piperazine-1-carbonyl)-4-(4-fluoro-phenoxy)-pyrrolidine]
Ki [1]: 284 nM

O=C([C@@H]1C[C@@H](Oc2cccc(Cl)c2)CN1)N1CCCN(C2CCC2)CC1 [Example 88, (2S,4R)-4-(3-Chloro-phenoxy)-2-(4-cyclobutyl-[1,4]diazepane-1-carbonyl)-pyrrolidine]
Ki (cloned rat H3 receptors): 130 nM

O=C([C@@H]1C[C@@H](Oc2ccc(Cl)c(Cl)c2)CN1)N1CCCN(C2CCC2)CC1 [Example 92, (2S,4R)-2-(4-Cyclobutyl-[1,4]diazepane-1-carbonyl)-4-(3,4-dichloro-phenoxy)-pyrrolidine]
Ki [1]: 51 nM

O=C([C@@H]1C[C@H](Oc2ccc(Cl)c(Cl)c2)CN1)N1CCCN(C2CCC2)CC1 [Example 93, (2S,4S)-2-(4-Cyclobutyl-[1,4]diazepane-1-carbonyl)-4-(3,4-dichloro-phenoxy)-pyrrolidine]
Ki [1]: 88 nM

CSc1ccc(O[C@@H]2CN[C@H](C(=O)N3CCCN(C4CCC4)CC3)C2)cc1 [Example 97, (2S,4S)-2-(4-Cyclobutyl-[1,4]diazepane-1-carbonyl)-4-(4-methylsulfanyl-phenoxy)-pyrrolidine]
Ki [1]: 89 nM

CN1C[C@@H](Oc2ccc(F)cc2)C[C@H]1C(=O)N1CCN(C2CCC2)CC1 [Example 107, (2S,4S)-1-Methyl-2-(4-cyclobutyl-piperazine-1-carbonyl)-4-(4-fluoro-phenoxy)-pyrrolidine]
Ki [1]: 523 nM

CCC(=O)N1C[C@@H](Oc2ccc(F)cc2)C[C@H]1C(=O)N1CCCN(C2CCC2)CC1 [Example 116, (2S,4S)-1-[2-(4-Cyclobutyl-[1,4]diazepane-1-carbonyl)-4-(4-fluoro-phenoxy)-pyrrolidin-1-yl]-propan-1-one]
Ki [1]: 152 nM

CC(C)C(=O)N1C[C@@H](Oc2ccc(F)cc2)C[C@H]1C(=O)N1CCCN(C2CCC2)CC1 [Example 117, (2S,4S)-1-[2-(4-Cyclobutyl-[1,4]diazepane-1-carbonyl)-4-(4-fluoro-phenoxy)pyrrolidin-1-yl]-2-methyl-propan-1-one]
Ki [1]: 796 nM

CC(C)(C)CC(=O)N1C[C@@H](Oc2ccc(F)cc2)C[C@H]1C(=O)N1CCCN(C2CCC2)CC1 [Example 118, (2S,4S)-1-[2-(4-Cyclobutyl-[1,4]diazepane-1-carbonyl)-4-(4-fluoro-phenoxy)-pyrrolidin-1-yl]-3,3-dimethyl-butan-1-one]
Ki [1]: 816 nM

CC(=O)N1C[C@@H](Oc2ccc(F)cc2)C[C@H]1C(=O)N1CCN(C2CCC2)CC1 [Example 119, (2S,4S)-1-[2-(4-Cyclobutyl-piperazine-1-carbonyl)-4-(4-fluoro-phenoxy)-pyrrolidin-1-yl]-ethanone]
Ki [1]: 300 nM

CSc1ccc(O[C@H]2C[C@H](C(=O)N3CCCN(C4CCC4)CC3)N(C(C)=O)C2)cc1 [Example 121, (2R,4S)-1-[2-(4-Cyclobutyl-[1,4]diazepane-1-carbonyl)-4-(4-methylsulfanyl-phenoxy)-pyrrolidin-1-yl]-ethanone]
Ki (human H3 receptor): 2 nM
Ki (cloned rat H3 receptors): 15 nM

CC(=O)N1C[C@@H](Oc2ccc(Cl)c(C)c2)C[C@@H]1C(=O)N1CCCN(C2CCC2)CC1 [Example 122, (2R,4S)-1-[4-(4-Chloro-3-methyl-phenoxy)-2-(4-cyclobutyl-[1,4]diazepane-1-carbonyl)-pyrrolidin-1-yl]-ethanone]
Ki (human H3 receptor): 1 nM
Ki (cloned rat H3 receptors): 12 nM

CS(=O)(=O)N1C[C@@H](Oc2ccc(F)cc2)C[C@H]1C(=O)N1CCCN(C2CCC2)CC1 [Example 137, (2S,4S)-1-Methanesulfonyl-2-(4-cyclobutyl-[1,4]diazepane-1-carbonyl)-4-(4-fluoro-phenoxy)-pyrrolidine]
Ki [1]: 206 nM

CS(=O)(=O)N1C[C@@H](Oc2ccc(F)cc2)C[C@H]1C(=O)N1CCN(C2CCC2)CC1 [Example 138, (2S,4S)-2-(4-Cyclobutyl-piperazin-1-yl)-[4-(4-fluoro-phenoxy)-1-methanesulfonyl-pyrrolidin-2-yl]-methanone]
Ki [1]: > 10000 nM

CC(C)(C)OC(=O)N1C[C@H](OCc2cccc(F)c2)C[C@@H]1C(=O)N1CCCN(C2CCC2)CC1 [Example 150, (2R,4R)-2-(4-Cyclobutyl-[1,4]diazepane-1-carbonyl)-4-(3-fluoro-benzyloxy)-pyrrolidine-1-carboxylic acid tert-butyl ester]
Ki [1]: 77 nM

CC(C)(C)OC(=O)N1C[C@H](OCc2ccc(F)cc2)C[C@@H]1C(=O)N1CCCN(C2CCC2)CC1 [Example 151, (2R,4R)-2-(4-Cyclobutyl-[1,4]diazepane-1-carbonyl)-4-(4-fluoro-benzyloxy)-pyrrolidine-1-carboxylic acid tert-butyl ester]
Ki [1]: 34 nM

O=C([C@H]1C[C@@H](OCc2cccc(F)c2)CN1)N1CCCN(C2CCC2)CC1 [Example 154, (2R,4R)-2-(4-Cyclobutyl-[1,4]diazepane-1-carbonyl)-4-(3-fluoro-benzyloxy)-pyrrolidine]
Ki [1]: 149 nM

O=C([C@H]1C[C@@H](OCc2ccc(F)cc2)CN1)N1CCCN(C2CCC2)CC1 [Example 155, (2R,4R)-2-(4-Cyclobutyl-[1,4]diazepane-1-carbonyl)-4-(4-fluoro-benzyloxy)-pyrrolidine]
Ki [1]: 160 nM
